According to patent publication US20190209509A1, “Hepatoprotective potential of Calebin A” (priority 2018, published 2019):

Columns and labels:
HepG2 cells [1] = test: Protection from alcohol induced toxicity, Sulphorhodamine B assay; type: cell-based, Human; details: alcohol 1000 mM, 72 hours
Experimental: (§1) Human HepG2 cells (procured from NCCS, Pune) were cultured in Dulbecco's Modified Eagle Medium (DMEM) supplemented with 10% fetal bovine serum (FBS), 40 μgml^−1 gentamycin at 37° C. in an atmosphere of 5% CO2. When the cells reached 80-90% confluence, they were trypsinized and plated at 5000 cells per well in a 96-well microplate. After 24 hours of seeding, alcohol at a concentration of 1000 mM was added along with different non cytotoxic concentrations of Calebin. Sulphorhodamine B assay was performed after 72 hours of treatment to determine the number of viable cells and percentage protection was calculated (FIG. 1).

HepG2 cells [2] = test: Protection from acetaminophen (paracetamol) induced toxicity, Sulphorhodamine B assay; type: cell-based, Human; details: 6.25 μM, acetaminophen 4 mM, 72 hours
Experimental: as §1, with “acetaminophen” for “alcohol”, “4” for “1000”, “2).” for “1).”

[3] = test system: C2C12 myotubes (muscle cells); test: Glucose uptake assay (2-NBDG, flow cytometry) in muscle cells; type: cell-based; details: concentration printed as 3004, versus Metformin 200 μM
Experimental: The skeletal muscle cell line C2C12 myoblasts (procured from ATCC) were maintained in DMEM supplemented with 10% Fetal Bovine Serum at 37° C. with 5% CO2. Twenty thousand cells per well were seeded in a 24 well plate. When the cells reached 80-90% confluence, differentiation was induced by replacing the growth medium with DMEM containing 1% horse serum. Experiments were performed in completely differentiated C2C12 myotubes after 4-5 days in differentiation medium. Cells were then treated with 0.5% BSA in low glucose media for 16 hours and washed with cold Krebs-Ringer phosphate buffer without glucose. Cells were then treated with different non cytotoxic concentrations of samples in low glucose DMEM media with or without insulin at a concentration of 0.1 μM for 30 minutes at 37° C. Cells were then washed with cold PBS and stained with 5 μM of a fluorescent D-glucose analog 2-[N-(7-nitrobenz-2-oxa-1,3-diazol-4-yl) amino]-2-deoxy-D-glucose (2-NBDG) for 15 minutes in dark followed by flow cytometric detection of fluorescence produced by the cells (FIG. 3)

adipocytes = test: Glucose uptake assay in adipocytes; type: cell-based; details: concentration printed as 3004, versus Metformin 200 μM

## COc1cc(/C=C/C(=O)COC(=O)/C=C/c2ccc(O)c(OC)c2)ccc1O [Calebin A]
HepG2 cells [1]; 6.25 μM
  percentage protection from alcohol induced toxicity: about 14%
HepG2 cells [1]; 12.5 μM
  percentage protection from alcohol induced toxicity: 30%
HepG2 cells [1]; progressively higher concentration, printed 6.25 μM
  percentage protection from alcohol induced toxicity: 23%
HepG2 cells [2]
  percentage protection against acetaminophen induced toxicity: about 15%
[3]
  increase in glucose uptake: almost as effective as Metformin
adipocytes
  increase in glucose uptake: almost as effective as Metformin
